Data published in patent US20260337153A1, “IONIZABLE AMINE LIPIDS” (Intellia Therapeutics, Inc., priority 2023, published 2026).

Key:
Format in all cases: physicochemical
[1] = LNP average particle size and polydispersity by dynamic light scattering; details: sgRNA:mRNA 1:2
Method: Dynamic Light Scattering (“DLS”) is used to characterize the polydispersity index (“pdi” or “PDI”) and size of the LNPs of the present disclosure. DLS measures the scattering of light that results from subjecting a sample to a light source. PDI, as determined from DLS measurements, represents the distribution of particle size (around the mean particle size) in a population, with a perfectly uniform population having a PDI of zero.
(§1) LNP compositions are analyzed for average particle size, polydispersity index (pdi), total RNA content, encapsulation efficiency of RNA, and zeta potential. LNP compositions may be further characterized by lipid analysis, AF4-MALS, NTA, and/or cryo-EM.
Average particle size and polydispersity are measured by dynamic light scattering (DLS) using a Malvern Zetasizer DLS instrument. LNP samples were diluted with PBS buffer prior to being measured by DLS. Z-average diameter (“Z-avg”) which is an intensity-based measurement of average particle size was reported along with number average diameter (“number mean”) and PDI. A Malvern Zetasizer instrument is also used to measure the zeta potential of the LNP. Samples are diluted 1:17 (50 μL into 800 μL) in 0.1×PBS, pH 7.4 prior to measurement.
(§2) In vivo editing efficiency for materials delivered with formulations including various amine lipid (or ionizable lipid) compounds in Experiments 1 through 14 as described in Tables 3 and 4 was assessed. Editing was measured using G000534 (SEQ ID NO: 5) which targets the rat TTR gene. Lipids described above were assessed for efficacy through in vivo editing experiments. LNPs were formulated at a 1:2 w/w ratio of sgRNA (SEQ ID NO: 5) and Cas9 mRNA (SEQ ID NO: 3). In Experiments 1 through 13, lipid components of the LNP are formulated in a molar ratio of 50% ionizable lipid, 38% cholesterol, 9% DSPC, and 3% PEG2K-DMG. In Experiment 14, lipid components of the LNP are formulated in a molar ratio of 50% ionizable lipid, 38% cholesterol, 9% DSPC, and 3% C13 Ether. The final LNPs used in different in vivo editing experiments were characterized to determine the encapsulation efficiency (% E), polydispersity index (PDI), and average particle size (Z-avg and number mean) according to the analytical methods provided above. The pKa values of each of the following ionizable lipids were also measured to be in the range of about 5.8 to about 7.6.
(§3) In vivo editing efficiency for materials delivered with formulations including various combinations of amine lipid (or ionizable lipid) and PEG lipid compounds was assessed as described in Tables 5 and 6. Editing was measured using G000534 (SEQ ID NO: 5) which targets the rat TTR gene. Lipids described above were assessed for efficacy through in vivo editing experiments. LNPs were formulated at a 1:2 w/w ratio of sgRNA (SEQ ID NO: 5) and Cas9 mRNA (SEQ ID NO:3). Lipid components of the LNP are formulated in a molar ratio of 50% ionizable lipid, 38% cholesterol, 9% DSPC, and 3% of various PEG lipids (e.g., PEG2K-DMG, C13 Ether, C14 Ether). The final LNPs used in different in vivo editing experiments were characterized to determine the encapsulation efficiency (% E), polydispersity index (PDI), and average particle size (Z-avg and number mean) according to the analytical methods provided above. The pKa values of each of the following ionizable lipids were also measured to be in the range of about 5.8 to about 7.6.
In vivo editing efficiency for materials delivered with formulations including various amine lipid (or ionizable lipid) compounds as described in Tables 7 and 8 was assessed. Editing was measured using G000534 (SEQ ID NO: 5) which targets the rat TTR gene. Lipids described above were assessed for efficacy through in vivo editing experiments. LNPs were formulated at a 1:2 w/w ratio of sgRNA (SEQ ID NO: 5) and Cas9 mRNA (SEQ ID NO: 3). Lipid components of the LNP were formulated in a molar ratio of 50% ionizable lipid, 38% cholesterol, 9% DSPC, and 3% C13 Ether. […]

[2] = LNP encapsulation efficiency of RNA (Ribogreen fluorescence assay); details: sgRNA:mRNA 1:2
Method: as §1
Encapsulation efficiency is calculated as (Total RNA−Free RNA)/Total RNA. A fluorescence-based assay (Ribogreen®, ThermoFisher Scientific) is used to determine total RNA concentration and free RNA. LNP samples are diluted appropriately with 1×TE buffer containing 0.2% Triton-X 100 to determine total RNA or 1×TE buffer to determine free RNA. Standard curves are prepared by utilizing the starting RNA solution used to make the compositions and diluted in 1×TE buffer+/−0.2% Triton-X 100. Diluted RiboGreen® dye (according to the manufacturer's instructions) is then added to each of the standards and samples and allowed to incubate for approximately 10 minutes at room temperature, in the absence of light. A SpectraMax M5 Microplate Reader (Molecular Devices) is used to read the samples with excitation, auto cutoff and emission wavelengths set to 488 nm, 515 nm, and 525 nm respectively. Total RNA and free RNA are determined from the appropriate standard curves. Alternatively, the total RNA concentration can be determined by a reverse-phase ion-pairing (RP-IP) HPLC method. Triton X-100 is used to disrupt the LNPs, releasing the RNA. The RNA is then separated from the lipid components chromatographically by RP-IP HPLC and quantified against a standard curve using UV absorbance at 260 nm.
as §2, §3
In vivo editing efficiency for materials delivered with formulations including various amine lipid (or ionizable lipid) compounds as described in Tables 7 and 8 was assessed. […]

[3] = pKa of unformulated amine lipid by TNS fluorescence; details: sodium phosphate buffer; Table 2; unformulated amine lipid, TNS; read-out: Lipid pKa
Method: The pKa of each amine lipid was determined according to the method in Jayaraman, et al. (Angew Chem Int Ed Engl 51(34), 2012, 8529-8533) with the following adaptations. The pKa was determined for unformulated amine lipid in ethanol. Lipid stock solutions (2.94 mM) were diluted into Sodium Phosphate Buffers (0.1 M, Boston Bioproducts) of different pH (pH-range: 4.5-9.0) yielding a final lipid concentration of approx. 100 μM. The test samples were supplemented with TNS {6-(p-Toluidino)-2-naphthalenesulfonic acid sodium salt}, incubated and the fluorescence intensity was measured using excitation and emission wavelengths of 321 nm and 448 nm, respectively. The recorded data were normalized and the respective pKa values were derived from sigmoidal fitting.

[4] = Table 3, Experiment 14, LNP with 3% C13 Ether
[5] = LNP with 50% ionizable lipid, 38% cholesterol, 9% DSPC, 3% C13 Ether (LNP #1, Compound 53: 3% PEG2K-DMG instead)
[6] = Table 3, Experiments 1-13, LNP 50% ionizable lipid, 38% cholesterol, 9% DSPC, 3% PEG2K-DMG

Row | Structure (SMILES) | pKa [3] | Number mean [1, 6] [nm] | PDI [1, 6] | Z-avg [1, 6] [nm] | % E (encapsulation efficiency) [2, 6] [%] | also measured
1 | CCCCCCCCC(CCCCCCCC)C(=O)OCC(COC(=O)NCCN(CC)CC)COC(=O)C(CCCCCCCC)CCCCCCCC [Compound 40, 2-((((2-(diethylamino)ethyl)carbamoyl)oxy)methyl)propane-1,3-diyl bis(2-octyldecanoate)] | 5.97 | – | – | – | – | Number mean [1, 4]: 48 nm; PDI [1, 4]: 0.062; Z-avg [1, 4]: 57 nm; % E (encapsulation efficiency) [2, 4]: 92%
2 | CCCCCCCCC(CCCCCCCC)OC(=O)CCCC(=O)OCC(COC(=O)CCCC(=O)OC(CCCCCCCC)CCCCCCCC)COC(=O)OCCCN1CCCC1 [Compound 33, di(heptadecan-9-yl) O,O′-(2-((((3-(pyrrolidin-1-yl)propoxy)carbonyl)oxy)methyl)propane-1,3-diyl) diglutarate] | 6.5 | 66 | 0.023 | 71 | 100 | Number mean (average particle size) [1, 5]: 60 nm; PDI (polydispersity index) [1, 5]: 0.01; Z-avg (average particle size) [1, 5]: 73 nm; % E (encapsulation efficiency) [2, 5]: 99%
3 | CCCCC/C=C\C/C=C\CCCCCCCC(=O)OCC(CCCCCCCCC(=O)OC(CCCCCCCC)CCCCCCCCC)COC(=O)CCC(CCCCCCCC)OC(=O)NCCN1CCCC1 (centres unmarked) [Compound 25, 11-(octadecan-9-yloxy)-11-oxo-2-(((4-(((2-(pyrrolidin-1-yl)ethyl)carbamoyl)oxy)dodecanoyl)oxy)methyl)undecyl (9Z,12Z)-octadeca-9,12-dienoate] | 6.44 | 64 | 0.03 | 72 | 98 | –
4 | CCCCC/C=C\C/C=C\CCCCCCCC(=O)OCC(CCCCC(=O)OC(CCCC)CCCC)COC(=O)OCCCN(C)CC (centres unmarked) [Compound 13, 2-((((3-(ethyl(methyl)amino)propoxy)carbonyl)oxy)methyl)-7-(nonan-5-yloxy)-7-oxoheptyl (9Z,12Z)-octadeca-9,12-dienoate] | 6.64 | 87 | 0.04 | 99 | 98 | –
5 | CCCCCCCCC(CCCCCCCC)CC(=O)OCCC(=O)OCC(COC(=O)CCCC(=O)OC(CCCCCCCC)CCCCCCCC)COC(=O)NCCN(CC)CC (centres unmarked) [Compound 63, 3-(((2-(diethylamino)ethyl)carbamoyl)oxy)-2-(((3-((3-octylundecanoyl)oxy)propanoyl)oxy)methyl)propyl heptadecan-9-yl Glutarate] | – | – | – | – | – | Number mean ([1]; Table 7, LNP with 3% C13 Ether): 73 nm; PDI ([1]; Table 7, LNP with 3% C13 Ether): 0.02; Z-avg ([1]; Table 7, LNP with 3% C13 Ether): 80 nm; % E (encapsulation efficiency) ([2]; Table 7, LNP with 3% C13 Ether): 96%
6 | CCCCCCCCC(CCCCCCCC)OC(=O)CCCC(=O)OCC(C)(COC(=O)CCCC(=O)OC(CCCCCCCC)CCCCCCCC)COC(=O)NCCN(CC)CC [Compound 36, O,O′-(2-((((2-(diethylamino)ethyl)carbamoyl)oxy)methyl)-2-methylpropane-1,3-diyl) di(heptadecan-9-yl) diglutarate] | – | 87 | 0.056 | 103 | 98 | –
7 | CCCCCCCCOC(CCC(=O)OCC(COC(=O)NCCN(CC)CC)COC(=O)C(CCCC)CCCCCC)OCCCCCCCC (centres unmarked) [Compound 48, 3-((4,4-bis(octyloxy)butanoyl)oxy)-2-((((2-(diethylamino)ethyl)carbamoyl)oxy)methyl)propyl 2-butyloctanoate] | – | 81 | 0.02 | 87 | 94 | –

The next lines start with results.

Row | pKa [3] | Number mean [1, 6] [nm] | PDI [1, 6] | Z-avg [1, 6] [nm] | % E (encapsulation efficiency) [2, 6] [%] | Structure (SMILES) | also measured
8 | – | 75 | 0.04 | 85 | 98 | CCCCCCCCOC(CCC(=O)OCC(COC(=O)CC(CCCC)CCCCCC)COC(=O)OCCCN(CC)CC)OCCCCCCCC (centres unmarked) [Compound 43, 3-((4,4-bis(octyloxy)butanoyl)oxy)-2-((((3-(diethylamino)propoxy)carbonyl)oxy)methyl)propyl 3-butylnonanoate] | –
9 | – | 75 | 0.05 | 83 | 98 | CCCCCCCCCCCC(=O)OCC(COC(=O)CCC(OCCCCCCCC)OCCCCCCCC)COC(=O)OCCCN(CC)CC (centres unmarked) [Compound 41, 3-((4,4-bis(octyloxy)butanoyl)oxy)-2-((((3-(diethylamino)propoxy)carbonyl)oxy)methyl)propyl Dodecanoate] | –
10 | – | 90 | 0.01 | 109 | 97 | CCCCCCC(CCCC)COC(=O)CCCCCC(=O)OCC(COC(=O)CCCCCC(=O)OCC(CCCC)CCCCCC)COC(=O)OCCCN(CC)CC (centres unmarked) [Compound 5, 7,7′-bis(2-butyloctyl) O′1,O1-(2-((((3-(diethylamino)propoxy)carbonyl)oxy)methyl)propane-1,3-diyl) di(heptanedioate)] | –
11 | – | 72 | 0.004 | 86 | 96 | CCCCCCCCC(CCCCCCCC)OC(=O)CCCCCC(=O)OCC(COC(=O)CCCCCC(=O)OC(CCCCCCCC)CCCCCCCC)COC(=O)OCCCN(CC)CC [Compound 3, O′1,O1-(2-((((3-(diethylamino)propoxy)carbonyl)oxy)methyl)propane-1,3-diyl) 7,7′-di(heptadecan-9-yl) di(heptanedioate)] | –
12 | – | 70 | 0.06 | 80 | 98 | CCCCCCCCOC(CCC(=O)OCC(COC(=O)CCC(OCCCCCCCC)OCCCCCCCC)COC(=O)OCCCN(CC)CC)OCCCCCCCC [Compound 1, 2-((((3-(diethylamino)propoxy)carbonyl)oxy)methyl)propane-1,3-diyl bis(4,4-bis(octyloxy)butanoate)] | –
